biological target: T1, human histamine H3 receptor (Homo sapiens, UniProt Q9Y5N1); assay: {3H}-N-methylhistamine binding to membranes of histamine H3 receptor-expressing SK-N-MC cells; conditions: 0.8 nM {3H}-N-methylhistamine, 45 min at 25° C., Ki=(IC50)/(1+({L}/(Kd)), Kd 800 pM)
T1 construct: One microgram of supercoiled H3 receptor cDNA was added to the cells and mixed; expressed in transfected cells; membranes
Description: Transfection of Cells with Human Histamine Receptor
A 10 cm tissue culture dish with a confluent monolayer of SK-N-MC cells was split two days prior to transfection. Using sterile technique the media was removed and the cells were detached from the dish by the addition of trypsin. One fifth of the cells were then placed onto a new 10 cm dish. Cells were grown in a 37° C. incubator with 5% CO2 in Minimal Essential Media Eagle with 10% Fetal Bovine Serum. After two days cells were approximately 80% confluent. These were removed from the dish with trypsin and pelleted in a clinical centrifuge. The pellet was then re-suspended in 400 μL complete media and transferred to an electroporation cuvette with a 0.4 cm gap between the electrodes. One microgram of supercoiled H3 receptor cDNA was added to the cells and mixed. The voltage for the electroporation was set at 0.25 kV, the capacitance was set at 960 μF. After electroporation the cells were diluted into 10 mL complete media and plated onto four 10 cm dishes. Because of the variability in the efficiency of electroporation, four different concentrations of cells were plated. The ratios used were; 1:20, 1:10, 1:5, with the remainder of the cells being added to the fourth dish. The cells were allowed to recover for 24 h before adding the selection media (complete media with 600 μg/mL G418). After 10 days dishes were analyzed for surviving colonies of cells. Dishes with well-isolated colonies were used. Cells from individual colonies were isolated and tested. SK-N-MC cells were used because they give efficient coupling for inhibition of adenylate cyclase. The clones that gave the most robust inhibition of adenylate cyclase in response to histamine were used for further study.
{^3H}-N-methylhistamine Binding
Cell pellets from histamine H3 receptor-expressing SK-N-MC cells were homogenized in 20 mM Tris HCl/0.5 mM EDTA. Supernatants from an 800 g spin were collected, recentrifuged at 30,000 g for 30 min. Pellets were re-homogenized in 50 mM Tris/5 mM EDTA (pH 7.4). Membranes were incubated with 0.8 nM {^3H}-N-methylhistamine plus/minus test compounds for 45 min at 25° C. and harvested by rapid filtration over GF/C glass fiber filters (pretreated with 0.3% polyethylenimine) followed by four washes with ice-cold buffer. Filters were dried, added to 4 mL scintillation cocktail and then counted on a liquid scintillation counter. Non-specific binding was defined with 10 μM histamine. The pKi values were calculated based on a Kd of 800 pM and a ligand concentration ({L}) of 800 pM according to the formula: Ki=(IC50)/(1+({L}/(Kd))

T1 sequence (Q9Y5N1 whole entry): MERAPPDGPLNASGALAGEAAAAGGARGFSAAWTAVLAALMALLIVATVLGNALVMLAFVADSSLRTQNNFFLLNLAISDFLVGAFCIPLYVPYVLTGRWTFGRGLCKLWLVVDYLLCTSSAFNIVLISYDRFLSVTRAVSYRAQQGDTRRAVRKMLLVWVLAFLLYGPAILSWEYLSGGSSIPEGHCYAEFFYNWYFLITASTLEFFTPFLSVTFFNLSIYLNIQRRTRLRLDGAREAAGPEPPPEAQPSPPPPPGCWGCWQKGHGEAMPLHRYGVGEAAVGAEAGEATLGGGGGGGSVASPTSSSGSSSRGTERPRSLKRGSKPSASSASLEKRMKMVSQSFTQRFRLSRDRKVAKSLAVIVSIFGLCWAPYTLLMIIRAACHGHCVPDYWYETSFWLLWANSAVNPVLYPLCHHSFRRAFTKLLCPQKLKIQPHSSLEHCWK

Compound | Ki [nM]
c1ccc(N2CCC(CN3CCCCC3)CC2)c(CN2CCOCC2)c1 [Example 22, 4-{2-(4-piperidin-1-ylmethyl-piperidin-1-yl)-benzyl}-morpholine] | 4500
c1cc(N2CCC(CN3CCCCCCCCCCCC3)CC2)ccc1CN1CCCC1 [Example 24, 1-{1-(4-Pyrrolidin-1-ylmethyl-phenyl)-piperidin-4-ylmethyl}-azacyclotridecane] | 23
CCN(CC)CC1CCN(c2ccc(CN3CCCC3)cc2)CC1 [Example 25, Diethyl-{1-(4-pyrrolidin-1-ylmethyl-phenyl)-piperidin-4-ylmethyl}-amine] | 0.8
CN(C)CC1CCN(c2ccc(CN3CCCC3)cc2)CC1 [Example 26, Dimethyl-{1-(4-pyrrolidin-1-ylmethyl-phenyl)-piperidin-4-ylmethyl}-amine] | 1.7
CN1CCN(CC2CCN(c3ccc(CN4CCCC4)cc3)CC2)CC1 [Example 27, 1-Methyl-4-{1-(4-pyrrolidin-1-ylmethyl-phenyl)-piperidin-4-ylmethyl}-piperazine] | 1.4
c1cc(N2CCC(CN3CCSCC3)CC2)ccc1CN1CCCC1 [Example 29, 4-{1-(4-Pyrrolidin-1-ylmethyl-phenyl)-piperidin-4-ylmethyl}-thiomorpholine] | 2
c1cc(N2CCC(CN3CCCCC3)CC2)ccc1CN1CCCC1 [Example 30, 1-{1-(4-Pyrrolidin-1-ylmethyl-phenyl)-piperidin-4-ylmethyl}-piperidine] | 1
c1cc(CN2CCCC2)cc(N2CCC(CN3CCCC3)CC2)c1 [Example 34, 4-Pyrrolidin-1-ylmethyl-1-(3-pyrrolidin-1-ylmethyl-phenyl)-piperidine] | 6
c1cc(CN2CCCCC2)cc(N2CCC(CN3CCCC3)CC2)c1 [Example 35, 1-{3-(4-pyrrolidin-1-ylmethyl-piperidin-1-yl)-benzyl}-piperidine] | 10
c1cc(N2CCC(CN3CCCC3)CC2)ccc1CNC1CCCCC1 [Example 37, Cyclohexyl-{4-(4-pyrrolidin-1-ylmethyl-piperidin-1-yl)-benzyl}-amine] | 2
CN1CCN(Cc2ccc(N3CCC(CN4CCCC4)CC3)cc2)CC1 [Example 39, 1-Methyl-4-{4-(4-pyrrolidin-1-ylmethyl-piperidin-1-yl)-benzyl}-piperazine] | 6
c1cc(N2CCC(CN3CCCC3)CC2)ccc1CN1CCOCC1 [Example 41, 4-{4-(4-Pyrrolidin-1-ylmethyl-piperidin-1-yl)-benzyl}-morpholine] | 12
CN(C)Cc1ccc(N2CCC(CN3CCCC3)CC2)cc1 [Example 42, Dimethyl-{4-(4-pyrrolidin-1-ylmethyl-piperidin-1-yl)-benzyl}-amine] | 5
c1cc(N2CCC(CN3CCOCC3)CC2)ccc1CN1CCCCC1 [Example 44, 4-{1-(4-Piperidin-1-ylmethyl-phenyl)-piperidin-4-ylmethyl}-morpholine] | 5
c1cc(N2CCC(CN3CCCC3)CC2)ccc1CN1CCCCC1 [Example 45, 1-{4-(4-Pyrrolidin-1-ylmethyl-piperidin-1-yl)-benzyl}-piperidine] | 2
CN(C1CCCCC1)C1CCN(c2ccc(CN3CCOCC3)cc2)CC1 [Example 47, Cyclohexyl-methyl-{1-(4-morpholin-4-ylmethyl-phenyl)-piperidin-4-yl}-amine] | 5.8
c1cc(N2CCC(N3CCOCC3)CC2)ccc1CN1CCOCC1 [Example 50, 4-{1-(4-Morpholin-4-ylmethyl-phenyl)-piperidin-4-yl}-morpholine] | 272
c1cc(N2CCC(N3CCCC3)CC2)ccc1CN1CCOCC1 [Example 51, 4-{4-(4-Pyrrolidin-1-yl-pieridin-1-yl)-benzyl}-morpholine] | 17

More lines, in order of falling Ki, values ahead:

Ki [nM] | Compound
4800 | c1ccc(N2CCC(CN3CCCC3)CC2)c(CN2CCOCC2)c1 [Example 43, 4-{2-(4-Pyrrolidin-1-ylmethyl-piperidin-1-yl)-benzyl}-morpholine]
1000 | CN1CCN(C2CCN(c3ccc(CN4CCOCC4)cc3)CC2)CC1 [Example 48, 4-{4-{4-(4-Methyl-piperazin-1-yl)-piperidin-1-yl}-benzyl}-morpholine]
48 | Fc1ccc(NCc2ccc(N3CCC(CN4CCCC4)CC3)cc2)cc1 [Example 59, (4-Fluoro-phenyl)-{4-(4-pyrrolidin-1-ylmethyl-piperidin-1-yl)-benzyl}-amine]
28 | c1cc(N2CCC(NC3CCCCC3)CC2)ccc1CN1CCOCC1 [Example 46, Cyclohexyl-{1-(4-morpholin-4-ylmethyl-phenyl)-piperidin-4-yl}-amine]
20 | c1cc(CN2CCOCC2)cc(N2CCC(CN3CCCC3)CC2)c1 [Example 33, 4-{3-(4-Pyrrolidin-1-ylmethyl-piperidin-1-yl)-benzyl}-morpholine]
14 | CCN(C)C1CCN(c2ccc(CN3CCOCC3)cc2)CC1 [Example 49, Ethyl-methyl-{1-(4-morpholin-4-ylmethyl-phenyl)-piperidin-4-yl}-amine]
9 | c1cc(CN2CCSCC2)cc(N2CCC(CN3CCCC3)CC2)c1 [Example 32, 4-{3-(4-Pyrrolidin-1-ylmethyl-piperidin-1-yl)-benzyl}-thiomorpholine]
8.4 | c1ccc(NCc2ccc(N3CCC(N4CCCCC4)CC3)cc2)nc1 [Example 54, (4-{1,4′}Bipiperidinyl-1′-yl-benzyl)-pyridin-2-yl-amine]
8 | c1ccc(NCC2CCN(c3ccc(CN4CCCC4)cc3)CC2)cc1 [Example 55, Phenyl-{1-(4-pyrrolidin-1-ylmethyl-phenyl)-piperidin-4-ylmethyl}-amine]
6 | c1cc(N2CCC(CN3CCCC3)CC2)ccc1CN1CCCCCCCCCCCC1 [Example 36, 1-{4-(4-Pyrrolidin-1-ylmethyl-piperidin-1-yl)-benzyl}-azacyclotridecane]
5.5 | c1cc(N2CCC(N3CCCCC3)CC2)ccc1CN1CCOCC1 [Example 52, 1′-(4-Morpholin-4-ylmethyl-phenyl)-{1,4′}bipiperidinyl]
5 | OC1CCN(Cc2ccc(N3CCC(CN4CCCC4)CC3)cc2)CC1 [Example 38, 1-{4-(4-Pyrrolidin-1-ylmethyl-piperidin-1-yl)-benzyl}-piperidin-4-ol]
4 | c1cc(N2CCC(CN3CCCC3)CC2)ccc1CN1CCSCC1 [Example 40, 4-{4-(4-Pyrrolidin-1-ylmethyl-piperidin-1-yl)-benzyl}-thiomorpholine]
3 | c1ccc(NCC2CCN(c3ccc(CN4CCCC4)cc3)CC2)nc1 [Example 56, Pyridin-2-yl-{1-(4-pyrrolidin-1-ylmethyl-phenyl)-piperidin-4-ylmethyl}-amine]
2.7 | c1cc(N2CCC(N3CCCCC3)CC2)ccc1CN1CCCCC1 [Example 53, 1′-(4-Piperidin-1-ylmethyl-phenyl)-{1,4′}bipiperidinyl]
2.5 | c1cc(N2CCC(CN3CCCCC3)CC2)ccc1CN1CCCCC1 [Example 57, 1-{1-(4-Piperidin-1-ylmethyl-phenyl)-piperidin-4-ylmethyl}-piperidine]
2 | c1cc(N2CCC(CN3CCOCC3)CC2)ccc1CN1CCCC1 [Example 31, 4-{1-(4-Pyrrolidin-1-ylmethyl-phenyl)-pieridin-4-ylmethyl}-morpholine]
1.3 | CN(CCc1ccccc1)CCC1CCN(c2ccc(CN3CCCCC3)cc2)C1 (centres unmarked) [Example 62, Methyl-phenethyl-{2-{1-(4-piperidin-1-ylmethyl-phenyl)-pyrrolidin-3-yl}-ethyl}-amine]
1.1 | c1cc(N2CCC(CCN3CCOCC3)C2)ccc1CN1CCCCC1 (centres unmarked) [Example 60, 4-{2-{1-(4-Piperidin-1-ylmethyl-phenyl)-pyrrolidin-3-yl}-ethyl}-morpholine]
0.9 | c1cc(N2CCC(CNC3CCCCC3)CC2)ccc1CN1CCCC1 [Example 23, Cyclohexyl-{1-(4-pyrrolidin-1-ylmethyl-phenyl)-piperidin-4-ylmethyl}-amine]
0.8 | OC1CCN(CC2CCN(c3ccc(CN4CCCC4)cc3)CC2)CC1 [Example 28, 1-{1-(4-Pyrrolidin-1-ylmethyl-phenyl)-piperidin-4-ylmethyl}-piperidin-4-ol]
0.8 | CCN(CC)CCC1CCN(c2ccc(CN3CCCCC3)cc2)C1 (centres unmarked) [Example 61, Diethyl-{2-{1-(4-piperidin-1-ylmethyl-phenyl)-pyrrolidin-3-yl}-ethyl}-amine]
0.6 | c1cc(N2CCC(CN3CCCC3)CC2)ccc1CN1CCCC1 [Example 58, 4-Pyrrolidin-1-ylmethyl-1-(4-pyrrolidin-1-ylmethyl-phenyl)-piperidine]
